Bounds are passed on as bounds.

For experiment [1], the system named is U-251. As to the kind of experiment: Antiproliferative activity against human U-251 cells after 48 hrs by MTT assay. In kind it is functional, cell-based. Conditions: U-251, 48 h.
Experiment [2] relates to A549. Briefly: Antiproliferative activity against human A549 cells after 48 hrs by MTT assay. It is filed as functional, cell-based. The conditions noted are these: A549, 48 h.
Another experiment concerns NCI-H460. As to the kind of experiment: Antiproliferative activity against human NCI-H460 cells after 48 hrs by MTT assay. In kind it is functional, cell-based. The conditions noted are these: NCI-H460, 48 h. (Tetrazolium dyes change colour on reduction, which living cells bring about.)
In a further experiment the test system is MCF7. Briefly: Antiproliferative activity against human MCF7 cells after 48 hrs by MTT assay. In kind it is functional, cell-based. Conditions: MCF7, 48 h.
For experiment [3], the system named is A549. As to the kind of experiment: Cell cycle arrest in human A549 cells assessed as G0/G1 phase at 500 nM incubated for 24 hrs by propidium iodide staining based flow cytometry analysis (reference value: 79.14%). In kind it is functional. In general terms: Flow cytometry measures light scatter and fluorescence of single cells or particles in a stream.
In experiment [4] the test system is A549. Briefly: Cell cycle arrest in human A549 cells assessed as G2/M phase at 500 nM measured after 24 hrs by propidium iodide staining based flow cytometry analysis (reference value: 6.08%). In kind it is functional.
The test system of experiment [5] is A549. As to the kind of experiment: Cell cycle arrest in human A549 cells assessed as S phase at 500 nM measured after 24 hrs by propidium iodide staining based flow cytometry analysis (reference value: 14.78%). In kind it is functional.
Experiment [6] has as its system U-251. As to the kind of experiment: Cell cycle arrest in human U-251 cells assessed as G0/G1 phase at 200 nM measured after 24 hrs by propidium iodide staining based flow cytometry analysis (reference value: 67.34%). It is filed as functional.
Experiment [7] relates to U-251. Briefly: Cell cycle arrest in human U-251 cells assessed as G2/M phase at 200 nM measured after 24 hrs by propidium iodide staining based flow cytometry analysis (reference value: 14.43%). In kind it is functional.
Experiment [8] relates to U-251. As to the kind of experiment: Cell cycle arrest in human U-251 cells assessed as S phase at 200 nM measured after 24 hrs by propidium iodide staining based flow cytometry analysis (reference value: 18.23%). In kind it is functional.
Experiment [9] relates to A549. Briefly: Induction of apoptosis in human A549 cells assessed as increase in viable cells at 500 nM measured after 24 hrs by PI/FITC analysis (reference value: 98.4%). In kind it is functional.
Experiment [10] concerns A549. As to the kind of experiment: Induction of apoptosis in human A549 cells assessed as increase in early apoptotic cells at 500 nM measured after 24 hrs by PI/FITC analysis (reference value: 0.955%). It is filed as functional.
In experiment [11] the test system is A549. As to the kind of experiment: Induction of apoptosis in human A549 cells assessed as increase in late apoptotic cells at 500 nM measured after 24 hrs by PI/FITC analysis (reference value: 0.955%). In kind it is functional.
The subject of experiment [12] is A549. Briefly: Induction of apoptosis in human A549 cells assessed as increase in necrotic cells at 500 nM measured after 24 hrs by PI/FITC analysis (reference value: 0.365%). In kind it is functional.
The subject of experiment [13] is U-251. Briefly: Induction of apoptosis in human U-251 cells assessed as increase in viable cells at 200 nM measured after 24 hrs by PI/FITC analysis (reference value: 98.3%). In kind it is functional.
The test system of experiment [14] is U-251. As to the kind of experiment: Induction of apoptosis in human U-251 cells assessed as increase in early apoptotic cells at 200 nM measured after 24 hrs by PI/FITC analysis (reference value: 1.12%). It is filed as functional.
Experiment [15] relates to U-251. Briefly: Induction of apoptosis in human U-251 cells assessed as increase in late apoptotic cells at 200 nM measured after 24 hrs by PI/FITC analysis (reference value: 0.311%). It is filed as functional.
Experiment [16] has as its system U-251. Briefly: Induction of apoptosis in human U-251 cells assessed as increase in necrotic cells at 200 nM measured after 24 hrs by PI/FITC analysis (reference value: 0.301%). In kind it is functional.
A short description of experiment [17]: Inhibition of pig brain tubulin polymerization at 1 uM by spectrometric method relative to control. It is filed as tissue-based, Sus scrofa.
The species named for the next experiment is Sus scrofa. Briefly: Inhibition of pig brain tubulin polymerization at 10 uM by spectrometric method relative to control. It is filed as tissue-based.

As for `COc1ccc(C2CNC(=O)C2)cc1OC1CCCC1` (centres undefined) [ROLIPRAM], the IC50 in the experiment with U-251 [1], in the experiment on A549 [2], with NCI-H460 and with MCF7 was greater than 100 µM in each case. Moreover, the Activity in the experiment with A549 [3] is 79.7%; in the experiment with A549 [4], 4.56%; with A549 [5], 15.73%; with U-251 [6], 68.42%; with U-251 [7] it was 14.73%; with U-251 [8], 16.85%. The Activity amounted to 98.2% with A549 [9]; 1.34% in the experiment on A549 [10]; 0.291% in the experiment with A549 [11]; 0.216% in the experiment on A549 [12]; 96.4% with U-251 [13]; 1.96% in the experiment with U-251 [14]. For the same compound, the results for the Activity with U-251 [15] and in the experiment with U-251 [16] were 0.865% and 0.745%, respectively.

Consider `COc1cc(-c2cccc3nc(-c4cccc(O)c4)oc23)cc(OC)c1OC`, for which the IC50 in the experiment with U-251 [1] was 5.5 µM; with A549 [2], 2 µM; in the experiment with NCI-H460, 1.9 µM; with MCF7, greater than 25 µM; in experiment [17], 5 µM. The compound also displayed an inhibition in the experiment listed under Sus scrofa of 43%.

One may read the IC50 as the point on the concentration scale where inhibition reaches its midpoint. Low readings indicate higher potency, high ones lower potency. In general, inhibition refers to the share of the control response that was lost under treatment.

The values above are taken from ChEMBL document CHEMBL4831506, “Discovery of novel trimethoxyphenylbenzo[d]oxazoles as dual tubulin/PDE4 inhibitors capable of inducing apoptosis at G2/M phase arrest in glioma and lung cancer cells” (Eur J Med Chem, 2021).
